ChEMBL document CHEMBL4602669, “Bishomoscalarane Sesterterpenoids from the Sponge Dysidea granulosa Collected in the South China Sea” (2020)

Assays:
Type in all cases: functional
K562 = experiment: Antiproliferative activity against human K562 cells by MTT assay
Jurkat = experiment: Antiproliferative activity against human Jurkat cells by MTT assay
A549 = experiment: Antiproliferative activity against human A549 cells by MTT assay
HCT-116 = experiment: Antiproliferative activity against human HCT116 cells by MTT assay
Bel-7402 = experiment: Antiproliferative activity against human Bel7402 cells by MTT assay

SMILES | GI50 (K562) [µM] | GI50 (Jurkat) [µM] | GI50 (A549) [µM] | GI50 (HCT-116) [µM] | GI50 (Bel-7402) [µM]
CC[C@@]1(C)CCC[C@]2(C)[C@H]3C[C@H](OC(=O)CC(C)O)[C@]4(C)C=C(C(C)=O)[C@H](O)C[C@H]4[C@]3(C)CC[C@@H]12 (stereo partly drawn) | > 30 | > 30 | > 30 | > 30 | > 30
CC/C1=C/CO[C@@]2(C)[C@@H](O)C[C@@H]3[C@@]4(C)CCC[C@](C)(CC)[C@@H]4CC[C@@]3(C)[C@@H]2CC1 | > 30 | > 30 | > 30 | > 30 | > 30
CC[C@@]1(C)CCC[C@]2(C)[C@H]3C[C@H](OC(=O)CC(C)O)[C@]45C[C@@H](O)[C@H]4C(C(C)=O)=CC[C@H]5[C@]3(C)CC[C@@H]12 (stereo partly drawn) | 11 |  | 12 | 14 | 14
CCC(=O)O[C@H]1C[C@@H]2[C@@]3(C)CCC[C@@]4(C[C@@H]4C)[C@@H]3CC[C@@]2(C)[C@@H]2CCC3=C(C(=O)O[C@H]3C)[C@@]12C | > 30 | > 30 | > 30 | > 30 | > 30
CC(=O)O[C@H]1C[C@@H]2[C@@]3(C)CCC[C@@]4(C[C@@H]4C)[C@@H]3CC[C@@]2(C)[C@@H]2CCC3=C(C(=O)O[C@H]3C)[C@@]12C | > 30 | > 30 | > 30 | > 30 | > 30
CC(=O)C1=C[C@@]2(C)[C@@H](OC(=O)CC(C)O)C[C@H]3[C@@](C)(CC[C@@H]4[C@]3(C)CCC[C@@]43C[C@@H]3C)[C@@H]2C[C@H]1O (stereo partly drawn) |  | 13 | 8.1 | 6.4 | 11
CC(=O)O[C@@H](C)[C@@]1(C)CCC[C@@]2(C)[C@H]1CC[C@]1(C)[C@@H]2C[C@H](OC(=O)CC(C)O)[C@]2(C)C=C(C(C)=O)[C@H](O)C[C@H]21 (stereo partly drawn) | > 30 | > 30 | > 30 | > 30 | > 30
CC(=O)OC(C)CC(=O)O[C@H]1C[C@@H]2[C@@]3(C)CCC[C@](C)([C@H](C)OC(C)=O)[C@@H]3CC[C@@]2(C)[C@@H]2C[C@@H](O)C(C(C)=O)=C[C@@]12C (stereo partly drawn) | > 30 | > 30 | > 30 | > 30 | > 30
CCC(O)CC(=O)O[C@H]1C[C@@H]2[C@@]3(C)CCC[C@](C)([C@H](C)OC(C)=O)[C@@H]3CC[C@@]2(C)[C@@H]2C[C@H](O)C(C(C)=O)=C[C@@]12C (stereo partly drawn) | > 30 | > 30 | > 30 | > 30 | > 30
COc1cccc2c1C(=O)c1c(O)c3c(c(O)c1C2=O)C[C@@](O)(C(=O)CO)C[C@@H]3O[C@H]1C[C@H](N)[C@H](O)[C@H](C)O1 [DOXORUBICIN] | < 1 | < 1 | < 1 | < 1 | < 1
CC(=O)O[C@H]1C[C@@H]2[C@@]3(C)CCC[C@@]4(C[C@@H]4C)[C@@H]3CC[C@@]2(C)[C@@H]2CCC3=C(C(=O)O[C@@H]3C)[C@@]12C | > 30 | > 30 | > 30 | > 30 | > 30
CC(O)CC(=O)O[C@H]1C[C@@H]2[C@@]3(C)CCC[C@@]4(C[C@@H]4C)[C@@H]3CC[C@@]2(C)[C@@H]2C[C@@H](O)C3=C([C@H](O)CC3=O)[C@@]12C (stereo partly drawn) | > 30 | > 30 | > 30 | > 30 | > 30
CCC(=O)O[C@@H](C)[C@@]1(C)CCC[C@@]2(C)[C@H]1CC[C@]1(C)[C@@H]2C[C@H](OC(=O)CC(O)CC)[C@]2(C)C3=C(CC[C@@H]12)[C@H](C)OC3=O (stereo partly drawn) | > 30 | > 30 | > 30 | > 30 | > 30
CC[C@@]1(C)CCC[C@]2(C)[C@H]3C[C@H](O)[C@]4(C)C5=C(CC[C@H]4[C@]3(C)CC[C@@H]12)C(=O)C[C@H]5O | > 30 | > 30 | > 30 | > 30 | > 30
CCC(=O)O[C@@H](C)[C@@]1(C)CCC[C@@]2(C)[C@H]1CC[C@]1(C)[C@@H]2C[C@H](OC(=O)CC(O)CC)[C@]2(C)C3=C(CC[C@@H]12)[C@@H](C)OC3=O (stereo partly drawn) | > 30 | > 30 | > 30 | > 30 | > 30
